Laboratory results as given in US12441733B2, “Substituted 2,4-dioxotetrahydropyrimidines as intermediates in the synthesis of bruton's tyrosine kinase inhibitors” (Novartis AG, priority 2018, dated 2025).

How the values were obtained:
TMD8 cells = experiment: Resazurin cell viability (proliferation) assay in TMD8 DLBCL cells; format: cell-based; conditions: Homo sapiens, TMD8 cells (BTK dependent), 72 h, 50% growth inhibition vs vehicle, read-out: TMD8 Prol GI50
In short: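 TMD8 cells were seeded at 1×10^4 per well and treated 3 h later with compound, in an 8-point 1:4 dilution series starting at 1 μM, or DMSO, for 72 h at 37° C. Resazurin was added at 13 μg/ml final for the last 2 h, and fluorescence was read at ex 530/em 600 nm. GI50 versus vehicle was derived by curve fitting from triplicates.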

OCI-LY3 cells = experiment: Resazurin cell viability (proliferation) assay in OCI-LY3 DLBCL cells; format: cell-based; conditions: Homo sapiens, OCI-LY3 cells (BTK independent), 72 h, 50% growth inhibition vs vehicle, read-out: OCI-LY3 Prol GI50
In short: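 Cells were seeded at 1×10^4 per well and dosed 3 h later: 8-point 1:4 dilutions from 10 μM (OCI-LY3), in triplicate, 72 h at 37 °C. Resazurin (13 μg/ml final) was added for the last 2 h and fluorescence read at 530/600 nm. GI50 is relative to DMSO vehicle, typically from ≥2 independent experiments.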

Structure (SMILES)	GI50 (TMD8 cells) [nM]	GI50 (OCI-LY3 cells) [nM]
CCOc1ccc(C(=O)N2CCC3(CCN(Cc4ccc(-c5cc6c(-c7cc(F)cc(NC(=O)c8ccc(C(C)(C)O)cc8F)c7C)ncnc6[nH]5)cc4)CC3)CC2)cc1N1CCC(=O)NC1=O [Compound 4, N-(3-(6-(4-((9-(3-(2,4-Dioxotetrahydropyrimidin-1(2H)-yl)-4-ethoxybenzoyl)-3,9-diazaspiro[5.5]undecan-3-yl)methyl)phenyl)-7H-pyrrolo[2,3-d]pyrimidin-4-yl)-5-fluoro-2-methylphenyl)-2-fluoro-4-(2-hydroxypropan-2-yl)benzamide]	1.84	4680
Cc1ccc(C(=O)N2CCC3(CCN(CCc4ccc(-c5cc6c(-c7cc(F)cc(NC(=O)c8ccc(C(C)(C)O)cc8F)c7C)ncnc6[nH]5)cc4)CC3)CC2)cc1N1CCC(=O)NC1=O [Compound 5, N-(3-(6-(4-(2-(9-(3-(2,4-Dioxotetrahydropyrimidin-1(2H)-yl)-4-methylbenzoyl)-3,9-diazaspiro[5.5]undecan-3-yl)ethyl)phenyl)-7H-pyrrolo[2,3-d]pyrimidin-4-yl)-5-fluoro-2-methylphenyl)-2-fluoro-4-(2-hydroxypropan-2-yl)benzamide]	0.47	6550
Cc1c(NC(=O)c2ccc(C(C)(C)O)cc2F)cc(F)cc1-c1ncnc2[nH]c(-c3ccc(COC4CCN(CCC5CCN(C(=O)c6ccc(F)c(N7CCC(=O)NC7=O)c6)CC5)CC4)cc3)cc12 [Compound 6, N-(3-(6-(4-(((1-(2(1-(3-(2,4-dioxotetrahydropyrimidin-1(2H)-yl)-4-fluorobenzoyl)piperidin-4-yl)ethyl)piperidin-4-yl)oxyl)methyl)phenyl)-7H-pyrrolo[2,3-d]pyrimidin-4-yl)-5-fluoro-2-methylphenyl)-2-fluoro-4-(2-hydroxypropan-2-yl)benzamide]	0.53	3430
COc1ccc(C(=O)N2CCC(OC3CCN(Cc4ccc(-c5cc6c(-c7cc(F)cc(NC(=O)c8ccc(C(C)(C)O)cc8F)c7C)ncnc6[nH]5)cc4)CC3)CC2)cc1N1CCC(=O)NC1=O [Compound 8, N-(3-(6-(4-((4-((1-(3-(2,4-dioxotetrahydropyrimidin-1(2H)-yl)-4-methoxybenzoyl)piperidin-4-yl)oxyl)piperidin-1-yl)methyl)phenyl)-7H-pyrrolo[2,3-d]pyrimidin-4-yl)-5-fluoro-2-methylphenyl)-2-fluoro-4-(2-hydroxypropan-2-yl)benzamide]	0.39	4850
COc1ccc(C(=O)N2CCC3(CCN(Cc4ccc(-c5cc6c(-c7cc(F)cc(NC(=O)c8ccc(C(C)(C)O)cc8F)c7C)ncnc6[nH]5)cc4)CC3)CC2)cc1N1CCC(=O)NC1=O [Compound 9, N-(3-(6-(4-((9-(3-(2,4-Dioxotetrahydropyrimidin-1(2H)-yl)-4-methoxybenzoyl)-3,9-diazaspiro[5.5]undecan-3-yl)methyl)phenyl)-7H-pyrrolo[2.3-d]pyrimidin-4-yl)-5-fluoro-2-methylphenyl)-2-fluoro-4-(2-hydroxypropan-2-yl)benzamide]	0.52	3870
Cc1c(NC(=O)c2ccc(C(C)(C)O)cc2F)cc(F)cc1-c1ncnc2[nH]c(-c3ccc(CCN4CCC5(CC4)CCN(C(=O)c4cccc(N6CCC(=O)NC6=O)c4)CC5)cc3)cc12 [Compound 12, N-(3-(6-(4-(2-(9-(3-(2,4-Dioxotetrahydropyrimidin-1(2H)-yl)benzoyl)-3,9-diazaspiro[5,5]undecan-3-yl)ethyl)phenyl)-7H-pyrrolo[2,3-d]pyrimidin-4-yl)-5-fluoro-2-methylphenyl)-2-fluoro-4-(2-hydroxypropan-2-yl)benzamide]	0.93	3840
Cc1c(NC(=O)c2ccc(C(C)(C)O)cc2F)cc(F)cc1-c1ncnc2[nH]c(-c3ccc(CN4CCC5(CC4)CCN(C(=O)c4ccc(F)c(N6CCC(=O)NC6=O)c4)CC5)cc3)cc12 [Compound 14, N-(3-(6-(4-((9-(3-(2,4-Dioxotetrahydropyrimidin-1(2H)-yl)-4-fluorobenzoyl)-3,9-diazaspiro[5.5]undecan-3-yl)methyl)phenyl)-7H-pyrrolo[2.3-d]pyrimidin-4-yl)-5-fluoro-2-methylphenyl)-2-fluoro-4-(2-hydroxypropan-2-yl)benzamide]	1.02	5980
COc1ccc(C(=O)N2CCC(CN3CCC(Oc4ccc(-c5cc6c(-c7cc(F)cc(NC(=O)c8ccc(C(C)(C)O)cc8F)c7C)ncnc6[nH]5)cc4)CC3)CC2)cc1N1CCC(=O)NC1=O [Compound 19, N-(3-(6-(4-((1-((1-(3-(2,4-Dioxotetrahydropyrimidin-1(2H)-yl)-4-methoxybenzoyl)piperidin-4-yl)methyl)piperidin-4-yl)oxyl)phenyl)-7H-pyrrolo[2,3-d]pyrimidin-4-yl)-5-fluoro-2-methylphenyl)-2-fluoro-4-(2-hydroxypropan-2-yl)benzamide]	0.45	4460
COc1ccc(C(=O)N2CCC3(CC2)CCN(C(C)(C)Cc2ccc(-c4cc5c(-c6cc(F)cc(NC(=O)c7ccc(C(C)(C)O)cc7F)c6C)ncnc5[nH]4)cc2)CC3)cc1N1CCC(=O)NC1=O [Compound 20, N-(3-(6-(4-(2-(9-(3-(2,4-Dioxotetrahydropyrimidin-1(2H)-yl)-4-methoxybenzoyl)-3,9-diazaspiro[5.5]undecan-3-yl)-2-methylpropyl)phenyl)-7H-pyrrolo[2,3-d]pyrimidin-4-yl)-5-fluoro-2-methylphenyl)-2-fluoro-4-(2-hydroxypropan-2-yl)benzamide]	0.53	7900
COc1ccc(C(=O)N2CCN(C(=O)N3CCN(Cc4ccc(-c5cc6c(-c7cc(F)cc(NC(=O)c8ccc(C(C)(C)O)cc8F)c7C)ncnc6[nH]5)cc4)CC3)CC2)cc1N1CCC(=O)NC1=O [Compound 22, N-(3-(6-(4-((4-(4-(3-(2,4-Dioxotetrahydropyrimidin-1(2H)-yl)-4-methoxybenzoyl)piperazine-1-carbonyl)piperazin-1-yl)methyl)phenyl)-7H-pyrrolo[2,3-d]pyrimidin-4-yl)-5-fluoro-2-methylphenyl)-2-fluoro-4-(2-hydroxypropan-2-yl)benzamide]	4.82	4110
Cc1ccc(C(=O)N2CCC3(CCN(Cc4ccc(-c5cc6c(-c7cc(F)cc(NC(=O)c8ccc(C(C)(C)O)cc8F)c7C)ncnc6[nH]5)cc4)CC3)CC2)cc1N1CCC(=O)NC1=O [Compound 27, N-(3-(6-(4-((9-(3-(2,4-Dioxotetrahydropyrimidin-1(2H)-yl)-4-methylbenzoyl)-3,9-diazaspiro[5.5]undecan-3-yl)methyl)phenyl)-7H-pyrrolo[2,3-d]pyrimidin-4-yl)-5-fluoro-2-methylphenyl)-2-fluoro-4-(2-hydroxypropan-2-yl)benzamide]	0.4	4080
Cc1cc(F)c(C(=O)NCCCCCNCc2ccc(-c3cc4c(-c5cc(F)cc(NC(=O)c6ccc(C(C)(C)O)cc6F)c5C)ncnc4[nH]3)cc2)cc1N1CCC(=O)NC1=O [Compound 29, 5-(2,4-Dioxotetrahydropyrimidin-1(2H)-yl)-2-fluoro-N—(S-((4-(4-(5-fluoro-3-(2-fluoro-4-(2-hydroxypropan-2-yl)benzamido)-2-methylphenyl)-7H-pyrrolo[2,3-d]pyrimidin-6-yl)benzyl)amino)pentyl)-4-methylbenzamide]	2.25	8620
Cc1ccc(C(=O)N(C)CCCCCNCc2ccc(-c3cc4c(-c5cc(F)cc(NC(=O)c6ccc(C(C)(C)O)cc6F)c5C)ncnc4[nH]3)cc2)cc1N1CCC(=O)NC1=O [Compound 30, 3-(2,4-Dioxotetrahydropyrimidin-1(2H)-yl)-N-(5-((4-(4-(5-fluoro-3-(2-fluoro-4-(2-hydroxypropan-2-yl)benzamido)-2-methylphenyl)-7H-pyrrolo[2,3-d]pyrimidin-6-yl)benzyl)amino)pentyl)-N,4-dimethylbenzamide]	5.2	> 10000
COc1ccc(C(=O)N2CCC3(CCN(CCc4ccc(-c5cc6c(-c7cc(F)cc(NC(=O)c8ccc(C(C)(C)O)cc8F)c7C)ncnc6[nH]5)cc4)CC3)CC2)cc1N1CCC(=O)NC1=O [Compound 31, N-(3-(6-(4-(2-(9-(3-(2,4-Dioxotetrahydropyrimidin-1(2H)-yl)-4-methoxybenzoyl)-3,9-diazaspiro[5.5]undecan-3-yl)ethyl)phenyl)-7H-pyrrolo[2,3-d]pyrimidin-4-yl)-5-fluoro-2-methylphenyl)-2-fluoro-4-(2-hydroxypropan-2-yl)benzamide]	0.46	5640
COc1ccc(C(=O)N2CCC(OC3CCN(CCc4ccc(-c5cc6c(-c7cc(F)cc(NC(=O)c8ccc(C(C)(C)O)cc8F)c7C)ncnc6[nH]5)cc4)CC3)CC2)cc1N1CCC(=O)NC1=O [Compound 34, N-(3-(6-(4-(2-(4-((1-(3-(2,4-Dioxotetrahydropyrimidin-1(2H)-yl)-4-methoxybenzoyl)piperidin-4-yl)oxyl)piperidin-1-yl)ethyl)phenyl)-7H-pyrrolo[2,3-d]pyrimidin-4-yl)-5-fluoro-2-methylphenyl)-2-fluoro-4-(2-hydroxypropan-2-yl)benzamide]	1.7	> 10000
COc1ccc(C(=O)NCCN2CCOC3(CCN(Cc4ccc(-c5cc6c(-c7cc(F)cc(NC(=O)c8ccc(C(C)(C)O)cc8F)c7C)ncnc6[nH]5)cc4)CC3)C2)cc1N1CCC(=O)NC1=O [Compound 39, N-(3-(6-(4-((4-(2-(3-(2,4-dioxotetrahydropyrimidin-1(2H)-yl)-4-methoxybenzamido)ethyl)-1-oxa-4,9-diazaspiro[5.5]undecan-9-yl)methyl)phenyl)-7H-pyrrolo[2,3-d]pyrimidin-4-yl)-5-fluoro-2-methylphenyl)-2-fluoro-4-(2-hydroxypropan-2-yl)benzamide]	4.79	7160
